According to patent US20220017486A1, “DOCK1-INHIBITING COMPOUND AND USE THEREOF” (KYUSHU UNIVERSITY, NATIONAL UNIVERSITY CORPORATION, priority 2018, published 2022):
Entries after “also recorded” stand apart in the source; their conditions may differ.

Tested on: mouse lung carcinoma cell line (3LL cells)
Test: Cell invasion inhibition assay (Matrigel invasion chamber)
Format: cell-based
Conditions: in words
Procedure, shortened: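 Matrigel invasion chambers (8 μm pores); cells in serum-free DMEM above, 10% FCS DMEM below, compound in both, 0.2% DMSO final. 3LL (K-Ras G12C), PANC02 and MDA-MB-157 (Rac1 P29S) cultured 22 h (3LL, PANC02) or 48 h (MDA-MB-157) at 37° C. Invaded cells Diff-Quick-stained and counted; % invasion vs DMSO control, % inhibition = 100 − % invasion.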

COC(=O)c1cc(S(=O)(=O)N2CCCC2)cn1CC(=O)c1ccc(-c2cccc(C(F)(F)F)c2)cc1 [RT-22, methyl 1-(2-oxo-2-(3′-(trifluoromethyl)-[1,1′-biphenyl]-4-yl)ethyl)-4-(pyrrolidin-1-yl-sulfonyl)-1H-pyrrole-2-carboxylate] was tested, and the “percent cell invasion inhibition compared with TBOPP” value was “higher percent cell invasion inhibition than TBOPP; also recorded: higher than those of TBOPP”.
